# Experimental data reported in patent US6362369B1, “Phthalic acid diamide derivatives fluorine-containing aniline compounds as starting material, agricultural and horticultural insecticides, and a method for application of the insecticides” (Nihon Nohyaku Co., Ltd., priority 1997, dated 2002).
# What was measured:
# Assay type in all cases: in vivo
# [1] = test system: common cutworm (Spodoptera Litura); experiment: Insecticidal effect on common cutworm (Test Example 2); conditions: 500 ppm, 25° C.; for Insecticidal effect on common cutworm (Test Example 2), judged grade / Insecticidal effect (Test Example 2), judged from mortality: cabbage leaf dip; for Insecticidal effect on common cutworm (Test Example 2), judged grade: second-instar larvae; for Insecticidal effect on common cutworm (Test Example 2), judged grade / Insecticidal effect, Test Example 2: eight days after inoculation; for Insecticidal effect, Test Example 2: cabbage leaf immersed; for Insecticidal effect (Test Example 2), judged from mortality: 8 days after inoculation
# Procedure, shortened: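 Air-dried treated material was placed in a closed dish with second-instar larvae and held at 25° C. Dead and live insects were counted eight days after inoculation, and mortality was calculated and scored against a fixed insecticidal-effect criterion. Three replicate groups of 10 insects were used.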
# [2] = test system: diamondback moth (Plutella xylostella); experiment: Insecticidal effect on diamondback moth (Test Example 1); conditions: for Insecticidal effect on diamondback moth (Test Example 1), judged grade: mortality judged according to the criterion shown in Test Example 1; for Insecticidal effect, Test Example 1 / Insecticidal effect (Test Example 1), judged from mortality: diamondback moth; for Insecticidal effect (Test Example 1), judged from mortality: judged by the criterion of Test Example 1
# Procedure, shortened: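 Read-out was mortality from hatched-insect counts taken 6 days after the egg-bearing cabbage seedling was immersed, graded by set criteria. Seedlings were air-dried and kept at 25° C after treatment. Groups of 10 insects, in triplicate.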
# [3] = test system: rice leafroller (Cnaphalocrocis medinalis); experiment: Insecticidal effect on rice leafroller (Test Example 3); conditions: 500 ppm, 25° C., humidity 70%; for Insecticidal effect on rice leafroller (Test Example 3), judged grade / Insecticidal effect (Test Example 3), judged from mortality: rice lamina dip; for Insecticidal effect on rice leafroller (Test Example 3), judged grade: third-instar larvae; for Insecticidal effect on rice leafroller (Test Example 3), judged grade / Insecticidal effect, Test Example 3: four days after inoculation; for Insecticidal effect, Test Example 3: rice lamina immersed; for Insecticidal effect (Test Example 3), judged from mortality: 4 days after inoculation
# Procedure, shortened: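 Groups of 10 third-instar larvae, in triplicate, are placed on air-dried lamina resting on wet filter paper. Incubation runs four days at 25° C with 70% humidity before survivors and dead are tallied.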
# [4] = common cutworm second-instar larvae
# [5] = mortality judged by criterion of Test Example 1
# [6] = rice leafroller third-instar larvae
# [7] = second-instar larvae of common cutworm
# [8] = judged by the mortality criterion of Test Example 1
# [9] = third-instar larvae of rice leafroller
smiles,measurement,setting,value
Cc1cc(C(F)(F)C(F)(F)C(F)(F)F)ccc1NC(=O)c1cccc(F)c1C(=O)NC(C)C [compound 496],"Insecticidal effect on common cutworm (Test Example 2), judged grade",[1],A (100)
same,"Insecticidal effect on diamondback moth (Test Example 1), judged grade",[2],A (100)
same,"Insecticidal effect on rice leafroller (Test Example 3), judged grade",[3],A (100)
Cc1cc(C(F)(C(F)(F)F)C(F)(F)F)ccc1NC(=O)c1ccccc1C(=O)NC(C)(C)C [compound 1037],"Insecticidal effect, Test Example 2",[1]; [4],A (100)
same,"Insecticidal effect, Test Example 1",[2]; [5],A (100)
same,"Insecticidal effect, Test Example 3",[3]; [6],A (100)
Cc1cc(Cl)ccc1NC(=O)c1c(Br)cccc1C(=O)NC(C)C [compound 306],"Insecticidal effect, Test Example 2",[1]; [7],A (100)
same,"Insecticidal effect, Test Example 1",[2]; [8],A (100)
same,"Insecticidal effect, Test Example 3",[3]; [9],A (100)
Cc1c(Cl)cccc1NC(=O)c1c(Br)cccc1C(=O)NC(C)C [compound 305],"Insecticidal effect, Test Example 2",[1]; [7],A (100)
same,"Insecticidal effect, Test Example 1",[2]; [8],A (100)
same,"Insecticidal effect, Test Example 3",[3]; [9],A (100)
Cc1c(NC(=O)c2cccc([N+](=O)[O-])c2C(=O)NC(C)C)cccc1C(F)(F)F [compound 681],"Insecticidal effect on common cutworm (Test Example 2), judged grade",[1],A (100)
same,"Insecticidal effect on diamondback moth (Test Example 1), judged grade",[2],A (100)
same,"Insecticidal effect on rice leafroller (Test Example 3), judged grade",[3],A (100)
CCC(C)NC(=O)c1c(Cl)cccc1C(=O)Nc1ccc(C(F)(F)C(F)(F)F)cc1F (stereo not drawn) [compound 1498],"Insecticidal effect (Test Example 2), judged from mortality",[1]; [7],A (100)
same,"Insecticidal effect (Test Example 1), judged from mortality",[2],A (100)
same,"Insecticidal effect (Test Example 3), judged from mortality",[3]; [9],A (100)
Cc1cc(C(F)(F)C(F)(F)F)ccc1NC(=O)c1cccc(Cl)c1C(=O)NC(C)C [compound 128],"Insecticidal effect, Test Example 2",[1]; [7],D (79-50)
same,"Insecticidal effect, Test Example 1",[2]; [8],A (100)
same,"Insecticidal effect, Test Example 3",[3]; [9],A (100)
Cc1cc(OC(F)(F)C(F)(F)c2ccccc2)ccc1NC(=O)c1cccc(Cl)c1C(=O)NC(C)C [compound 1087],"Insecticidal effect, Test Example 2",[1]; [4],A (100)
same,"Insecticidal effect, Test Example 1",[2]; [5],A (100)
same,"Insecticidal effect, Test Example 3",[3]; [6],A (100)
CC(C)(C)NC(=O)c1c(I)cccc1C(=O)Nc1cc2c(cc1Cl)OC(F)(F)O2 [compound 1624],"Insecticidal effect (Test Example 2), judged from mortality",[1]; [7],D (79-50)
same,"Insecticidal effect (Test Example 1), judged from mortality",[2],A (100)
same,"Insecticidal effect (Test Example 3), judged from mortality",[3]; [9],A (100)
Cc1cc(C(F)(F)C(F)(F)C(F)(F)F)ccc1NC(=O)c1c(I)cccc1C(=O)NC(C)C [compound 438],"Insecticidal effect, Test Example 2",[1]; [7],B (99-90)
same,"Insecticidal effect, Test Example 1",[2]; [8],A (100)
same,"Insecticidal effect, Test Example 3",[3]; [9],A (100)
CC(C)(C)NC(=O)c1c(Cl)cccc1C(=O)Nc1ccc(C(O)(C(F)(F)F)C(F)(F)F)cc1 [compound 1053],"Insecticidal effect, Test Example 2",[1]; [4],A (100)
same,"Insecticidal effect, Test Example 1",[2]; [5],A (100)
same,"Insecticidal effect, Test Example 3",[3]; [6],A (100)
Cc1cc(OC(F)F)c(Cl)cc1NC(=O)c1cccc(Cl)c1C(=O)NC(C)C [compound 150],"Insecticidal effect, Test Example 2",[1]; [7],A (100)
same,"Insecticidal effect, Test Example 1",[2]; [8],A (100)
same,"Insecticidal effect, Test Example 3",[3]; [9],A (100)
Cc1cc(C(F)(F)F)ccc1NC(=O)c1c(Cl)cccc1C(=O)NC(C)C [compound 221],"Insecticidal effect, Test Example 2",[1]; [7],A (100)
same,"Insecticidal effect, Test Example 1",[2]; [8],A (100)
same,"Insecticidal effect, Test Example 3",[3]; [9],A (100)
Cc1cc(C(F)(F)C(F)(F)F)ccc1NC(=O)c1cccc(I)c1C(=O)NCCC(C)C [compound 1015],"Insecticidal effect, Test Example 2",[1]; [4],D (79-50)
same,"Insecticidal effect, Test Example 1",[2]; [5],A (100)
same,"Insecticidal effect, Test Example 3",[3]; [6],A (100)
CC(C)NC(=O)c1c(Cl)cccc1C(=O)Nc1ccc2c(c1)OC(F)(F)O2 [compound 1101],"Insecticidal effect, Test Example 2",[1]; [4],C (89-80)
same,"Insecticidal effect, Test Example 1",[2]; [5],A (100)
same,"Insecticidal effect, Test Example 3",[3]; [6],A (100)
CC(C)NC(=O)c1c(F)cccc1C(=O)Nc1ccc(SC(F)(F)C(F)(F)Br)cc1 [compound 480],"Insecticidal effect on common cutworm (Test Example 2), judged grade",[1],B (99-90)
same,"Insecticidal effect on diamondback moth (Test Example 1), judged grade",[2],A (100)
same,"Insecticidal effect on rice leafroller (Test Example 3), judged grade",[3],A (100)
Cc1cc(Oc2ncccn2)ccc1NC(=O)c1cccc(I)c1C(=O)NC(C)C [compound 1618],"Insecticidal effect (Test Example 2), judged from mortality",[1]; [7],C (89-80)
same,"Insecticidal effect (Test Example 1), judged from mortality",[2],A (100)
same,"Insecticidal effect (Test Example 3), judged from mortality",[3]; [9],A (100)
Cc1cc(C(F)(F)C(F)(F)F)ccc1NC(=O)c1ccc(F)c(Cl)c1C(=O)NC(C)C [compound 1228],"Insecticidal effect, Test Example 2",[1]; [4],A (100)
same,"Insecticidal effect, Test Example 1",[2]; [5],A (100)
same,"Insecticidal effect, Test Example 3",[3]; [6],A (100)
Cc1c(Cl)cccc1NC(=O)c1cccc(I)c1C(=O)NC(C)C [compound 361],"Insecticidal effect, Test Example 2",[1]; [7],A (100)
same,"Insecticidal effect, Test Example 1",[2]; [8],A (100)
same,"Insecticidal effect, Test Example 3",[3]; [9],A (100)
CC(C)NC(=O)c1c(Cl)cccc1C(=O)Nc1ccc(Cl)cc1F [compound 115],"Insecticidal effect, Test Example 2",[1]; [7],C (89-80)
same,"Insecticidal effect, Test Example 1",[2]; [8],A (100)
same,"Insecticidal effect, Test Example 3",[3]; [9],A (100)
CC(C)NC(=O)c1c(I)cccc1C(=O)Nc1cc2c(cc1Cl)OC(F)(F)O2 [compound 1622],"Insecticidal effect (Test Example 2), judged from mortality",[1]; [7],A (100)
same,"Insecticidal effect (Test Example 1), judged from mortality",[2],A (100)
same,"Insecticidal effect (Test Example 3), judged from mortality",[3]; [9],A (100)
Cc1cc(Oc2c(F)c(F)c(F)c(F)c2F)ccc1NC(=O)c1cccc(Cl)c1C(=O)NC(C)C [compound 157],"Insecticidal effect, Test Example 2",[1]; [7],A (100)
same,"Insecticidal effect, Test Example 1",[2]; [8],A (100)
same,"Insecticidal effect, Test Example 3",[3]; [9],A (100)
Cc1cc(C(F)(F)C(F)(F)F)ccc1NC(=O)c1cccc(Cl)c1C(=O)NCc1ccccc1F [compound 1468],"Insecticidal effect (Test Example 2), judged from mortality",[1]; [7],C (89-80)
same,"Insecticidal effect (Test Example 1), judged from mortality",[2],A (100)
same,"Insecticidal effect (Test Example 3), judged from mortality",[3]; [9],A (100)
CC(C)(C)NC(=O)c1ccccc1C(=O)Nc1ccc(OC(F)(F)F)cc1 [compound 929],"Insecticidal effect on common cutworm (Test Example 2), judged grade",[1],A (100)
same,"Insecticidal effect on diamondback moth (Test Example 1), judged grade",[2],A (100)
same,"Insecticidal effect on rice leafroller (Test Example 3), judged grade",[3],A (100)
CC(C)NC(=O)c1c(Cl)cccc1C(=O)Nc1ccc2c(c1)OC(F)(F)C(F)O2 (stereo not drawn) [compound 1163],"Insecticidal effect, Test Example 2",[1]; [4],A (100)
same,"Insecticidal effect, Test Example 1",[2]; [5],A (100)
same,"Insecticidal effect, Test Example 3",[3]; [6],A (100)
Cc1cc(C(F)(F)C(F)(F)C(F)(F)C(F)(F)F)ccc1NC(=O)c1cccc([N+](=O)[O-])c1C(=O)NC(C)C [compound 686],"Insecticidal effect on common cutworm (Test Example 2), judged grade",[1],A (100)
same,"Insecticidal effect on diamondback moth (Test Example 1), judged grade",[2],A (100)
same,"Insecticidal effect on rice leafroller (Test Example 3), judged grade",[3],A (100)
CC(C)NC(=O)c1cccc(Cl)c1C(=O)Nc1ccc(OC(F)F)cc1C(F)(F)F [compound 253],"Insecticidal effect, Test Example 2",[1]; [7],A (100)
same,"Insecticidal effect, Test Example 1",[2]; [8],A (100)
same,"Insecticidal effect, Test Example 3",[3]; [9],C (89-80)
Cc1cc(OC(F)(F)C(F)(Cl)Cl)ccc1NC(=O)c1c(F)cccc1C(=O)NC(C)C [compound 553],"Insecticidal effect on common cutworm (Test Example 2), judged grade",[1],C (89-80)
same,"Insecticidal effect on diamondback moth (Test Example 1), judged grade",[2],A (100)
same,"Insecticidal effect on rice leafroller (Test Example 3), judged grade",[3],A (100)
Cc1cc(OC(F)(F)C(F)OC(F)(F)F)ccc1NC(=O)c1c(I)cccc1C(=O)NC(C)C (stereo not drawn) [compound 457],"Insecticidal effect on common cutworm (Test Example 2), judged grade",[1],A (100)
same,"Insecticidal effect on diamondback moth (Test Example 1), judged grade",[2],A (100)
same,"Insecticidal effect on rice leafroller (Test Example 3), judged grade",[3],B (99-90)
Cc1c(Cl)cccc1NC(=O)c1cccc([N+](=O)[O-])c1C(=O)NC(C)C [compound 663],"Insecticidal effect on common cutworm (Test Example 2), judged grade",[1],A (100)
same,"Insecticidal effect on diamondback moth (Test Example 1), judged grade",[2],A (100)
same,"Insecticidal effect on rice leafroller (Test Example 3), judged grade",[3],D (79-50)
Cc1cc(OC(F)(F)Br)ccc1NC(=O)c1cccc(F)c1C(=O)NC(C)C [compound 511],"Insecticidal effect on common cutworm (Test Example 2), judged grade",[1],A (100)
same,"Insecticidal effect on diamondback moth (Test Example 1), judged grade",[2],A (100)
same,"Insecticidal effect on rice leafroller (Test Example 3), judged grade",[3],A (100)
